What was measured:
[1] = tested on: LIF expression in GBM neurospheres; experiment: LIF mRNA by qRT-PCR in GBM neurospheres; assay type: cell-based, human; conditions: 3 hours; for LIF transcript in neurospheres derived from patients: 100 pM, medium without serum
Description: (§1) FIG. 3. TGFβ induces the expression of LIF in PCTC and GBM neurospheres. (A) PCTC cells of the 11 samples of the indicated GEM (GBM1-11) were treated with 100 pM TGFβ1 for 3 hours in medium without serum or left untreated, and the expression levels of LIF were determined by means of qRT-PCR. The g-actin was determined as an internal normalization control. (B) GBM neurosphere cells were treated as in A and the expression levels of LIF were determined by means of qRT-PCR as in A. (C) GBM neurospheres were incubated with 100 pM TGFβ1 and/or 2 μM TβRI inhibitor for 3 hours in medium without serum and the mRNA levels of LIF were determined by means of qRT-PCR as in A. (D) GBM1 neurospheres were incubated with 100 pM TGFβ1, TGFβ2 and TGFβ3 for 3 hours in medium without serum and the mRNA levels of LIF were determined by means of qRT-PCR as in A. (E) The levels of LIF protein secreted were determined by means of ELISA in GBM1 neurospheres after 48 hours of treatment with 100 pM TGFβ1.
The U373MG and A172 cells were a generous gift from J. Rich and D. Bigner and were cultured in DMEM with 10% fetal bovine serum (FBS). The primary culture of tumor cells (PCTC) and the GBM neurospheres were generated as described (Bruna et al., (2007) Cancer Cell 11, 147-160; Gunther et al., (2008) Oncogene. May 1; 27(20):2897-909). Briefly, the samples of tumors were processed in the 30 minutes after the surgical resection. The ground pieces of the samples of human gliomas were digested with 200 U/ml collagenase I (Sigma) and 500 U/ml of DNase I (Sigma) in PBS for 2 hours at 37° C. and with constant vigorous stirring. The suspension of individual cells was filtered through a 70 μm cell filter (BD Falcon) and washed with PBS. Finally, the cells were resuspended and subsequently cultured in DMEM with 10% FBS, for the culture of PCTCs, or in neurosphere medium in the case of the GBM neurospheres. The neurospheres of normal human neuroprogenitors were generated from human embryonic cerebral cortex tissue (12-16 weeks after the conception) collected after voluntary abortions. The samples were processed and cultured as described (Poltavtseva et al. (2002) Brain Res Dev Brain Res 134, 149-154). The neurosphere medium consists of neurobasal medium (Gibco) supplemented with B27 (Gibco), L-glutamine (Gibco), penicillin/streptomycin, and growth factors (20 ng/mL EGF and 20 ng/mL FGF-2 (Peprotech)).
(§2) qRT-PCR was performed using Taqman probes from Applied Biosystems, according to the manufacturer's recommendations. The reactions were carried out in a ABI 7000 sequence detector (Perkin Elmer) and the results were expressed as the fold change calculated by means of the DDCt method relative to the control sample or the first quantified sample. The ribosomal unit of 18S or β-actin were used as internal normalization controls.
It was decided to investigate the molecular mechanisms responsible for the effect of TGFβ on GICs. Gene responses to TGFβ in GBM cells which could be involved in the regulation of the self-renewal of GICs were investigated. In a previous work (Bruna et al., 2007), transcriptome analyses were conducted in the U373MG glioma cell line treated with TGFβ and/or a TβRI inhibitor. LIF was among the 63 gene responses to TGFβ in U373MG which were dependent on the activity of TβRI. […] A panel of PCTCs derived from 11 different human GBMs was treated with TGFβ for 3 hours and the levels of LIF mRNA were determined.

[2] = tested on: LIF expression in PCTC cells; experiment: LIF mRNA by qRT-PCR in PCTCs of human GBM; assay type: cell-based; conditions: PCTCs from 11 human GBMs, 100 pM TGFβ1, 3 hours, medium without serum
Description: as §1, with “TGFβ1. […]” for “TGFβ1.”
as §2, with “The ribosomal unit of 18S or β-actin were used as internal normalization controls.” left out

LIF protein secretion = experiment: Secreted LIF protein by ELISA in GBM1 neurospheres; assay type: cell-based, human; conditions: 48 hours, 100 pM TGFβ1
Description: as §1
For the quantitative determination of the levels of LIF protein secreted to the medium, the human LIF ELISA kit (R&D Systems) was used, following the manufacturer's specifications. […]
It was decided to investigate the molecular mechanisms responsible for the effect of TGFβ on GICs. […] A panel of PCTCs derived from 11 different human GBMs was treated with TGFβ for 3 hours and the levels of LIF mRNA were determined.

[3] = tested on: LIF expression in mouse neuroprogenitors; experiment: LIF induction in mouse neuroprogenitors; assay type: cell-based; conditions: from mouse embryos or the subventricular area of adult mice; data not shown

Compound | effect on the induction of LIF by TGFβ ([1]; GBM neurospheres, 100 pM TGFβ1 with 2 μM TβRI inhibitor) | levels of LIF mRNA in PCTCs [2] | LIF transcript in neurospheres derived from patients [1] | LIF transcript in neurospheres derived from patients ([1]; listed as TGFβ1) | secretion of the LIF protein (ELISA, conditioned neurosphere medium) (LIF protein secretion) | induction of LIF in mouse neuroprogenitors [3]
NC(=O)c1ccc(-c2nc(-c3ccc4c(c3)OCO4)c(-c3ccccn3)[nH]2)cc1 [TβRI inhibitor, SB431542, reference compound] | blocked | – | – | – | – | –
TGFβ: TGFβ1 (R&D Systems), used at 100 pM according to the figure legends | – | induced LIF in all the PCTCs assayed | capable of inducing the LIF transcript | capable of inducing LIF | increase in the secretion of the LIF protein | did not induce LIF
